Source: US7118895B2, “Process for producing aglycon by using diglycosidase and flavor-improved food containing the aglycon and converting agent to be used in the process” (Amano Enzyme Inc., priority 2000, dated 2006)

Experiments:
[1] = tested on: β-Xylosidase derived from pectinase G; test: Reactivity toward various isoflavone glycosides (HPLC); type: biochemical; parameters: unit not given here; details: 55 °C, pH 4.0
Protocol: (§1) Diglycosidase was diluted with an acetate buffer of pH 4.0 to prepare a 0.75 AU/mL enzyme solution. As references, a similar operation was conducted using β-glucosidase (manufactured by Fluka) derived from Aspergillus niger, β-glucosidase (manufactured by Sigma) derived from almond, β-xylosidase derived from pectinase G (manufactured by Amano Enzyme Inc.). Each of purified products of isoflavone glycosides (glycitin, acetylglycitin, malonylglycitin, daidzin, acetyldaidzin, malonyldaidzin, genistin, acetylgenistin, malonylgenistin, all manufactured by Nacalai Tesque, Inc.) was dissolved in methanol to prepare each 2 mM substrate solution. The reaction was carried out by mixing 10 μL of a substrate solution, 200 μL of 20 mM acetate buffer (pH 4.0), and 40 μL of each purified enzyme solution at a total liquid volume of 250 μL. The reaction was carried out at 55° C. and isolation of an aglycon isoflavone from an isoflavone glycoside in the reaction mixture was detected by HLPC at 0, 1, 3, and 6 hours of the reaction.
(§2) To the reaction mixture was added 700 μL of ethanol, followed by stirring and ultrasonication. After centrifugation at 15,000 rpm and 4° C. for 10 minutes, the supernatant was filtered through a filter and then the filtrate was applied to HPLC.
(§3) The isoflavone glycoside and aglycon isoflavone contained in the filtrate was separated and detected by a high performance liquid chromatography (HPLC, Shimadzu CLASS LC-10 system) using TOSOH TSK gel ODS-80TM column (manufactured by Tosoh Corporation). […] The absorbance at 260 nm was detected by a UV detector (Shimadzu, SPD-10AV). Using purified products (manufactured by Nacalai Tesque, Inc.) of the above isoflavone glycosides and aglycon isoflavones, the isoflavone glycoside and aglycon isoflavone were quantitatively determined according to a calibration curve method. By the way, unless otherwise stated, the measuring conditions of HPLC herein mean those described in the example.

[2] = tested on: β-Glucosidase derived from almond; test: as above; type: biochemical; parameters: unit not given here; details: 55 °C, pH 4.0
Protocol: as §1, §2, §3

Crude diglycosidase = test: Examination of substrate concentration in the conversion into isoflavone aglycons by diglycosidase using soybean materials; type: biochemical, Penicillium multicolor IAM7153;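 further: percent of the isoflavone family total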
Summary of the method: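 Reaction at 55° C, shaken, pH 4.0 (20 mM acetate), using crude diglycosidase from a 1.88 AU/mL enzyme solution on soy flour, soymilk, defatted soybean or soy protein concentrate at 2, 5, 10, 20 or 30% (w/v). Isoflavone aglycons quantified by HPLC of ethanol extracts at 0, 1, 3, 6 h.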

## COc1cc2c(=O)c(-c3ccc(O)cc3)coc2cc1O[C@@H]1O[C@H](COC(C)=O)[C@@H](O)[C@H](O)[C@H]1O [acetylglycitin, 6″-O-acetylglycitin]
[1]; Reaction time 0 h
  aglycon: 0
  glucoside: 100
[1]; Reaction time 1 h
  aglycon: 0
  glucoside: 100
[1]; Reaction time 3 h
  aglycon: 0
  glucoside: 100
[1]; Reaction time 6 h
  aglycon: 0
  glucoside: 100
[2]; Reaction time 0 h
  aglycon: 0
  glucoside: 100
[2]; Reaction time 1 h
  aglycon: 0
  glucoside: 100
[2]; Reaction time 3 h
  aglycon: 0
  glucoside: 100
[2]; Reaction time 6 h
  aglycon: 0
  glucoside: 100
Crude diglycosidase; concentrated soybean protein, substrate concentration 2%, heat treatment of enzyme no, reaction time 0 h
  Decomposition efficiency: ratio of each glycoside/aglycon within its isoflavone family: 35.8%
Crude diglycosidase; concentrated soybean protein, substrate concentration 2%, heat treatment of enzyme no, reaction time 1 h
  Decomposition efficiency: ratio of each glycoside/aglycon within its isoflavone family: 14.3%
Crude diglycosidase; concentrated soybean protein, substrate concentration 2%, heat treatment of enzyme no, reaction time 3 h
  Decomposition efficiency: ratio of each glycoside/aglycon within its isoflavone family: 5.3%
Crude diglycosidase; concentrated soybean protein, substrate concentration 2%, heat treatment of enzyme no, reaction time 6 h
  Decomposition efficiency: ratio of each glycoside/aglycon within its isoflavone family: 0.0%
Crude diglycosidase; concentrated soybean protein, substrate concentration 2%, heat treatment of enzyme yes, reaction time 6 h
  Decomposition efficiency: ratio of each glycoside/aglycon within its isoflavone family: 35.0%
Crude diglycosidase; concentrated soybean protein, substrate concentration 5%, heat treatment of enzyme no, reaction time 0 h
  Decomposition efficiency: ratio of each glycoside/aglycon within its isoflavone family: 35.6%
Crude diglycosidase; concentrated soybean protein, substrate concentration 5%, heat treatment of enzyme no, reaction time 1 h
  Decomposition efficiency: ratio of each glycoside/aglycon within its isoflavone family: 27.1%
Crude diglycosidase; concentrated soybean protein, substrate concentration 5%, heat treatment of enzyme no, reaction time 3 h
  Decomposition efficiency: ratio of each glycoside/aglycon within its isoflavone family: 17.8%
Crude diglycosidase; concentrated soybean protein, substrate concentration 5%, heat treatment of enzyme no, reaction time 6 h
  Decomposition efficiency: ratio of each glycoside/aglycon within its isoflavone family: 12.3%
Crude diglycosidase; concentrated soybean protein, substrate concentration 5%, heat treatment of enzyme yes, reaction time 6 h
  Decomposition efficiency: ratio of each glycoside/aglycon within its isoflavone family: 34.4%
Crude diglycosidase; concentrated soybean protein, substrate concentration 10%, heat treatment of enzyme no, reaction time 0 h
  Decomposition efficiency: ratio of each glycoside/aglycon within its isoflavone family: 35.7%
Crude diglycosidase; concentrated soybean protein, substrate concentration 10%, heat treatment of enzyme no, reaction time 1 h
  Decomposition efficiency: ratio of each glycoside/aglycon within its isoflavone family: 31.2%
Crude diglycosidase; concentrated soybean protein, substrate concentration 10%, heat treatment of enzyme no, reaction time 3 h
  Decomposition efficiency: ratio of each glycoside/aglycon within its isoflavone family: 26.2%
Crude diglycosidase; concentrated soybean protein, substrate concentration 10%, heat treatment of enzyme no, reaction time 6 h
  Decomposition efficiency: ratio of each glycoside/aglycon within its isoflavone family: 23.9%
Crude diglycosidase; concentrated soybean protein, substrate concentration 10%, heat treatment of enzyme yes, reaction time 6 h
  Decomposition efficiency: ratio of each glycoside/aglycon within its isoflavone family: 35.2%
Crude diglycosidase; concentrated soybean protein, substrate concentration 20%, heat treatment of enzyme no, reaction time 0 h
  Decomposition efficiency: ratio of each glycoside/aglycon within its isoflavone family: 35.9%
Crude diglycosidase; concentrated soybean protein, substrate concentration 20%, heat treatment of enzyme no, reaction time 1 h
  Decomposition efficiency: ratio of each glycoside/aglycon within its isoflavone family: 35.4%
Crude diglycosidase; concentrated soybean protein, substrate concentration 20%, heat treatment of enzyme no, reaction time 3 h
  Decomposition efficiency: ratio of each glycoside/aglycon within its isoflavone family: 33.6%
Crude diglycosidase; concentrated soybean protein, substrate concentration 20%, heat treatment of enzyme no, reaction time 6 h
  Decomposition efficiency: ratio of each glycoside/aglycon within its isoflavone family: 30.5%
Crude diglycosidase; concentrated soybean protein, substrate concentration 20%, heat treatment of enzyme yes, reaction time 6 h
  Decomposition efficiency: ratio of each glycoside/aglycon within its isoflavone family: 35.8%
Crude diglycosidase; concentrated soybean protein, substrate concentration 30%, heat treatment of enzyme no, reaction time 0 h
  Decomposition efficiency: ratio of each glycoside/aglycon within its isoflavone family: 33.9%
Crude diglycosidase; concentrated soybean protein, substrate concentration 30%, heat treatment of enzyme no, reaction time 1 h
  Decomposition efficiency: ratio of each glycoside/aglycon within its isoflavone family: 35.9%
Crude diglycosidase; concentrated soybean protein, substrate concentration 30%, heat treatment of enzyme no, reaction time 3 h
  Decomposition efficiency: ratio of each glycoside/aglycon within its isoflavone family: 30.7%
Crude diglycosidase; concentrated soybean protein, substrate concentration 30%, heat treatment of enzyme no, reaction time 6 h
  Decomposition efficiency: ratio of each glycoside/aglycon within its isoflavone family: 28.3%
Crude diglycosidase; concentrated soybean protein, substrate concentration 30%, heat treatment of enzyme yes, reaction time 6 h
  Decomposition efficiency: ratio of each glycoside/aglycon within its isoflavone family: 33.4%
Crude diglycosidase; defatted soybean, substrate concentration 2%, heat treatment of enzyme no, reaction time 0 h
  Decomposition efficiency: ratio of each glycoside/aglycon within its isoflavone family: not detected
Crude diglycosidase; defatted soybean, substrate concentration 2%, heat treatment of enzyme no, reaction time 1 h
  Decomposition efficiency: ratio of each glycoside/aglycon within its isoflavone family: not detected
Crude diglycosidase; defatted soybean, substrate concentration 2%, heat treatment of enzyme no, reaction time 3 h
  Decomposition efficiency: ratio of each glycoside/aglycon within its isoflavone family: not detected
Crude diglycosidase; defatted soybean, substrate concentration 2%, heat treatment of enzyme no, reaction time 6 h
  Decomposition efficiency: ratio of each glycoside/aglycon within its isoflavone family: not detected
Crude diglycosidase; defatted soybean, substrate concentration 2%, heat treatment of enzyme yes, reaction time 6 h
  Decomposition efficiency: ratio of each glycoside/aglycon within its isoflavone family: not detected
Crude diglycosidase; defatted soybean, substrate concentration 5%, heat treatment of enzyme no, reaction time 0 h
  Decomposition efficiency: ratio of each glycoside/aglycon within its isoflavone family: not detected
Crude diglycosidase; defatted soybean, substrate concentration 5%, heat treatment of enzyme no, reaction time 1 h
  Decomposition efficiency: ratio of each glycoside/aglycon within its isoflavone family: not detected
Crude diglycosidase; defatted soybean, substrate concentration 5%, heat treatment of enzyme no, reaction time 3 h
  Decomposition efficiency: ratio of each glycoside/aglycon within its isoflavone family: not detected
Crude diglycosidase; defatted soybean, substrate concentration 5%, heat treatment of enzyme no, reaction time 6 h
  Decomposition efficiency: ratio of each glycoside/aglycon within its isoflavone family: not detected
Crude diglycosidase; defatted soybean, substrate concentration 5%, heat treatment of enzyme yes, reaction time 6 h
  Decomposition efficiency: ratio of each glycoside/aglycon within its isoflavone family: not detected
Crude diglycosidase; defatted soybean, substrate concentration 10%, heat treatment of enzyme no, reaction time 0 h
  Decomposition efficiency: ratio of each glycoside/aglycon within its isoflavone family: not detected
Crude diglycosidase; defatted soybean, substrate concentration 10%, heat treatment of enzyme no, reaction time 1 h
  Decomposition efficiency: ratio of each glycoside/aglycon within its isoflavone family: not detected
Crude diglycosidase; defatted soybean, substrate concentration 10%, heat treatment of enzyme no, reaction time 3 h
  Decomposition efficiency: ratio of each glycoside/aglycon within its isoflavone family: not detected
Crude diglycosidase; defatted soybean, substrate concentration 10%, heat treatment of enzyme no, reaction time 6 h
  Decomposition efficiency: ratio of each glycoside/aglycon within its isoflavone family: not detected
Crude diglycosidase; defatted soybean, substrate concentration 10%, heat treatment of enzyme yes, reaction time 6 h
  Decomposition efficiency: ratio of each glycoside/aglycon within its isoflavone family: not detected
Crude diglycosidase; roasted soy flour, substrate concentration 2%, heat treatment of enzyme no, reaction time 0 h
  Decomposition efficiency: ratio of each glycoside/aglycon within its isoflavone family: 33.6%
Crude diglycosidase; roasted soy flour, substrate concentration 2%, heat treatment of enzyme no, reaction time 1 h
  Decomposition efficiency: ratio of each glycoside/aglycon within its isoflavone family: not detected
Crude diglycosidase; roasted soy flour, substrate concentration 2%, heat treatment of enzyme no, reaction time 3 h
  Decomposition efficiency: ratio of each glycoside/aglycon within its isoflavone family: not detected
Crude diglycosidase; roasted soy flour, substrate concentration 2%, heat treatment of enzyme no, reaction time 6 h
  Decomposition efficiency: ratio of each glycoside/aglycon within its isoflavone family: not detected
Crude diglycosidase; roasted soy flour, substrate concentration 2%, heat treatment of enzyme yes, reaction time 6 h
  Decomposition efficiency: ratio of each glycoside/aglycon within its isoflavone family: 34.4%
Crude diglycosidase; roasted soy flour, substrate concentration 5%, heat treatment of enzyme no, reaction time 0 h
  Decomposition efficiency: ratio of each glycoside/aglycon within its isoflavone family: 33.8%
Crude diglycosidase; roasted soy flour, substrate concentration 5%, heat treatment of enzyme no, reaction time 1 h
  Decomposition efficiency: ratio of each glycoside/aglycon within its isoflavone family: 11.8%
Crude diglycosidase; roasted soy flour, substrate concentration 5%, heat treatment of enzyme no, reaction time 3 h
  Decomposition efficiency: ratio of each glycoside/aglycon within its isoflavone family: 7.2%
Crude diglycosidase; roasted soy flour, substrate concentration 5%, heat treatment of enzyme no, reaction time 6 h
  Decomposition efficiency: ratio of each glycoside/aglycon within its isoflavone family: not detected
Crude diglycosidase; roasted soy flour, substrate concentration 5%, heat treatment of enzyme yes, reaction time 6 h
  Decomposition efficiency: ratio of each glycoside/aglycon within its isoflavone family: 33.8%
Crude diglycosidase; roasted soy flour, substrate concentration 10%, heat treatment of enzyme no, reaction time 0 h
  Decomposition efficiency: ratio of each glycoside/aglycon within its isoflavone family: 24.2%
Crude diglycosidase; roasted soy flour, substrate concentration 10%, heat treatment of enzyme no, reaction time 1 h
  Decomposition efficiency: ratio of each glycoside/aglycon within its isoflavone family: 16.7%
Crude diglycosidase; roasted soy flour, substrate concentration 10%, heat treatment of enzyme no, reaction time 3 h
  Decomposition efficiency: ratio of each glycoside/aglycon within its isoflavone family: 9.7%
Crude diglycosidase; roasted soy flour, substrate concentration 10%, heat treatment of enzyme no, reaction time 6 h
  Decomposition efficiency: ratio of each glycoside/aglycon within its isoflavone family: not detected
Crude diglycosidase; roasted soy flour, substrate concentration 10%, heat treatment of enzyme yes, reaction time 6 h
  Decomposition efficiency: ratio of each glycoside/aglycon within its isoflavone family: 35.1%
Crude diglycosidase; roasted soy flour, substrate concentration 20%, heat treatment of enzyme no, reaction time 0 h
  Decomposition efficiency: ratio of each glycoside/aglycon within its isoflavone family: 31.8%
Crude diglycosidase; roasted soy flour, substrate concentration 20%, heat treatment of enzyme no, reaction time 1 h
  Decomposition efficiency: ratio of each glycoside/aglycon within its isoflavone family: 22.9%
Crude diglycosidase; roasted soy flour, substrate concentration 20%, heat treatment of enzyme no, reaction time 3 h
  Decomposition efficiency: ratio of each glycoside/aglycon within its isoflavone family: 13.8%
Crude diglycosidase; roasted soy flour, substrate concentration 20%, heat treatment of enzyme no, reaction time 6 h
  Decomposition efficiency: ratio of each glycoside/aglycon within its isoflavone family: 10.0%
Crude diglycosidase; roasted soy flour, substrate concentration 20%, heat treatment of enzyme yes, reaction time 6 h
  Decomposition efficiency: ratio of each glycoside/aglycon within its isoflavone family: 35.0%
Crude diglycosidase; roasted soy flour, substrate concentration 30%, heat treatment of enzyme no, reaction time 0 h
  Decomposition efficiency: ratio of each glycoside/aglycon within its isoflavone family: 35.3%
Crude diglycosidase; roasted soy flour, substrate concentration 30%, heat treatment of enzyme no, reaction time 1 h
  Decomposition efficiency: ratio of each glycoside/aglycon within its isoflavone family: 28.4%
Crude diglycosidase; roasted soy flour, substrate concentration 30%, heat treatment of enzyme no, reaction time 3 h
  Decomposition efficiency: ratio of each glycoside/aglycon within its isoflavone family: 24.4%
Crude diglycosidase; roasted soy flour, substrate concentration 30%, heat treatment of enzyme no, reaction time 6 h
  Decomposition efficiency: ratio of each glycoside/aglycon within its isoflavone family: 13.7%
Crude diglycosidase; roasted soy flour, substrate concentration 30%, heat treatment of enzyme yes, reaction time 6 h
  Decomposition efficiency: ratio of each glycoside/aglycon within its isoflavone family: 34.4%
